From patent publication US6696533B1, “Stable N-oxly radical assisted emulsion polymerization under pressure” (BASF Aktiengesellschaft, priority 1997, dated 2004) come the findings set out here.

On this data set, the source says:
The monomers and polymerization auxiliaries used in the examples below were used without further purification, in other words as acquired.

Each structure is given as a SMILES string.

For `CC1(C)CCCC(C)(C)N1O` [TEMPO, 2,2,6,6-tetramethyl-1-oxyl-piperidine], the “molal solubility in water” value stood at 6.4e-05 mol/kg.
